Results taken from PubChem BioAssay (NCI).
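Dose response: 5 concentrations. Exposure: 48 h. Format: 96-well plates. Endpoint: linear interpolation; highest concentration if not reached. At the TGI there is no net growth.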 *1 amine or outer side, *2 acyl side, *3 side chain or, on linkers, in order; H or OH if unused. Where a SMILES comes first, the peptide text is derived from it. [ ]: non-standard residue; d: D form. The star is where a group is joined. ξ: configuration not given here. NMeY = CN[C@@H](Cc1ccc(O)cc1)C(=O)O; Ethylenediamine = C(CN[*:2])N[*:1]; ξNMeL = CNC(CC(C)C)C(=O)O; Cbz = O=C(OCc1ccccc1)*; Lac = C[C@H](O)C(=O)O; ξA = CC(N)C(=O)O

What was measured:
Assay in all cases: growth of human tumour cells (NCI), 48 h
[1] = test system: MCF7 breast
[2] = test system: PC-3 prostate
[3] = test system: SN12C renal
[4] = test system: CCRF-CEM leukemia
[5] = test system: OVCAR-3 ovarian
[6] = test system: 786-0 renal
[7] = test system: TK-10 renal
[8] = test system: SF-268 CNS
[9] = test system: KM12 colon
[10] = test system: UACC-62 melanoma
[11] = test system: NCI-H460 lung
[12] = test system: SF-539 CNS
[13] = test system: SK-MEL-2 melanoma
[14] = test system: M14 melanoma
[15] = test system: HS 578T breast
[16] = test system: HCT-116 colon
[17] = test system: RPMI-8226 leukemia
[18] = test system: RXF 393 renal
[19] = test system: UACC-257 melanoma

Row | Compound | TGI [1] | TGI [2] | TGI [3] | TGI [4] | TGI [5] | TGI [6] | TGI [7] | TGI [8] | TGI [9] | TGI [10] | TGI [11] | TGI [12] | TGI [13] | TGI [14] | TGI [15] | TGI [16] | TGI [17] | TGI [18] | TGI [19]
1 | CNC(=O)N(CCC#N)CCN(C(=O)N(C)C)c1ccccc1 | > 100 µM | > 100 µM | > 100 µM | > 100 µM | > 100 µM | > 100 µM | > 100 µM | > 100 µM | > 100 µM | > 100 µM | > 100 µM | > 100 µM | > 100 µM | > 100 µM | > 100 µM | > 100 µM | > 100 µM | > 100 µM | > 100 µM
2 | COc1ccc(C[C@@H](C(=O)NCCNC(=O)C(CC(C)C)N(C)C(=O)[C@@H]2CCCN2C(=O)[C@H](C)O)N(C)C(=O)[C@@H]2CCCN2C(=O)[C@H](CC(C)C)NC(=O)C(C)NC(=O)OCc2ccccc2)cc1 (stereo partly drawn) (Cbz-[ξA]LP[NMeY](Me)-{Ethylenediamine-ξNMeL-Pro-Lac}) | > 100 µM | > 100 µM | > 100 µM | > 100 µM | > 100 µM | > 100 µM | > 100 µM | > 100 µM | > 100 µM | > 100 µM | > 100 µM | > 100 µM | > 100 µM | > 100 µM | > 100 µM | > 100 µM | > 100 µM | > 100 µM | > 100 µM
3 | O=C1c2c(Br)sc(Br)c2[C@@H](Cl)[C@H]1Cl | 53.5 µM | 38.9 µM | 36.7 µM | 35.9 µM | 30 µM | 52.5 µM | 87.3 µM | 39.8 µM | 65.4 µM | 34.6 µM | 40.9 µM | 27.1 µM | 37.7 µM | 39.1 µM | > 100 µM | 48.8 µM | 54.6 µM | 30.7 µM | 30.9 µM
4 | CCOc1ccccc1NC(=O)C(=O)C(/C(=N/N)C(=O)OC)c1nc2ccc([N+](=O)[O-])cc2[nH]c1=O (stereo not drawn) | > 100 µM | > 100 µM | > 100 µM | > 100 µM | > 100 µM | > 100 µM | > 100 µM | > 100 µM | > 100 µM | > 100 µM | > 100 µM | > 100 µM | > 100 µM | > 100 µM | > 100 µM | > 100 µM | > 100 µM | > 100 µM | > 100 µM
5 | C=C1C(=O)O[C@H]2C1C[C@@H](O)/C(C)=C/CC[C@@]1(C)O[C@H]21 (stereo partly drawn) | 35 µM | > 49.3 µM | > 55.9 µM | 12.6 µM | 21.5 µM | > 48.2 µM | 33.4 µM | > 100 µM | > 100 µM | > 54.2 µM | > 68.5 µM | 54.3 µM | > 54.8 µM | 37.4 µM | > 89.5 µM | 23.6 µM | 25.8 µM | 26.5 µM | 46.8 µM
6 | CN(CCNC(=O)c1c[nH]c2c1ccc1ccccc12)CCNC(=O)c1c[nH]c2c1ccc1ccccc12 | 2.74 µM | 6.68 µM | 11.7 µM | 3.86 µM | 17.3 µM | 2.87 µM | 9.75 µM | 11.6 µM | 3.29 µM | 3.46 µM | 4.13 µM | 3.39 µM | 3.91 µM | 3.52 µM | 10.5 µM | 3.39 µM | 15.6 µM | 2.62 µM | 3.94 µM
7 | c1ccc2c(c1)nc1n2CSCC1 | > 100 µM | > 100 µM | > 100 µM | > 100 µM | > 100 µM | > 100 µM | > 100 µM | > 100 µM | > 100 µM | > 100 µM | > 100 µM | > 100 µM | > 100 µM | > 100 µM | > 100 µM | > 100 µM | > 100 µM | > 100 µM | > 100 µM
